Measurements from patent publication US12077503B2, “Substituted cyclic amides and their use as herbicides” (FMC CORPORATION, priority 2015, dated 2024).

Key:
Format in all cases: in vivo
[1] = test system: ryegrass, Italian (Italian ryegrass, Lolium multiflorum); test: Test A preemergence; details: Lolium multiflorum, pre-emergence, 240 h, 0 to 100 scale where 0 is no effect and 100 is complete control, read-out: Ryegrass, Italian plant response rating
Procedure, shortened: (§1)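 Greenhouse, ~10 d after spray; visual injury vs untreated controls, 0 = no effect, 100 = complete control. Preemergence: directed soil spray over planted seeds. Postemergence: plants 2–10 cm, 1–2 leaf stage. Loam/sand blend. Compound in non-phytotoxic solvent with surfactant.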

[2] = test system: pigweed (Amaranthus retroflexus); test: Test A preemergence; details: Amaranthus retroflexus, pre-emergence, 240 h, 0 to 100 scale where 0 is no effect and 100 is complete control, read-out: Pigweed plant response rating
Kochia (Kochia scoparia) [3] = test: Test A preemergence; details: Bassia scoparia, pre-emergence, 240 h, 0 to 100 scale where 0 is no effect and 100 is complete control, read-out: Kochia plant response rating
Procedure, shortened: as §1

[4] = test system: ragweed (common ragweed, Ambrosia elatior); test: Test A preemergence; details: Ambrosia artemisiifolia, pre-emergence, 240 h, 0 to 100 scale where 0 is no effect and 100 is complete control, read-out: Ragweed plant response rating
Procedure, shortened: as §1

[5] = test system: barnyardgrass (Echinochloa crus-galli); test: Test A preemergence; details: Echinochloa crus-galli, pre-emergence, 240 h, 0 to 100 scale where 0 is no effect and 100 is complete control, read-out: Barnyardgrass plant response rating
Procedure, shortened: as §1

[6] = test system: giant foxtail (Setaria faberii); test: Test A preemergence; details: Setaria faberi, pre-emergence, 240 h, 0 to 100 scale where 0 is no effect and 100 is complete control, read-out: Foxtail, Giant plant response rating
Procedure, shortened: as §1

[7] = test system: blackgrass (Alopecurus myosuroides); test: Test A postemergence; details: Alopecurus myosuroides, post-emergence, 240 h
Procedure, shortened: as §1

[8] = test system: wheat (Triticum aestivum); test: Test A postemergence; details: Triticum aestivum, post-emergence, 240 h, 125 g ai/ha, postemergence, visual injury vs untreated controls after approx. 10 d; 0 = no effect, 100 = complete control; read-out: Wheat plant response rating (0 to 100 scale)
Procedure, shortened: as §1

[9] = test system: ryegrass, Italian (Italian ryegrass, Lolium multiflorum); test: Test A postemergence; details: Lolium multiflorum, post-emergence, 240 h, 125 g ai/ha, postemergence, visual injury vs untreated controls after approx. 10 d; 0 = no effect, 100 = complete control; read-out: Ryegrass, Italian plant response rating (0 to 100 scale)
Procedure, shortened: as §1

[10] = test system: pigweed (Amaranthus retroflexus); test: Test A postemergence; details: Amaranthus retroflexus, post-emergence, 240 h, 125 g ai/ha, postemergence, visual injury vs untreated controls after approx. 10 d; 0 = no effect, 100 = complete control; read-out: Pigweed plant response rating (0 to 100 scale)
Procedure, shortened: as §1

Kochia (Kochia scoparia) [11] = test: Test A postemergence; details: Bassia scoparia, post-emergence, 240 h
Procedure, shortened: as §1

[12] = test system: ragweed (common ragweed, Ambrosia elatior); test: Test A postemergence; details: Ambrosia artemisiifolia, post-emergence, 240 h, 125 g ai/ha, postemergence, visual injury vs untreated controls after approx. 10 d; 0 = no effect, 100 = complete control; read-out: Ragweed plant response rating (0 to 100 scale)
Procedure, shortened: as §1

corn (Zea mays) = test: Test A postemergence; details: Zea mays, post-emergence, 240 h
Procedure, shortened: as §1

[13] = test system: Galium (catchweed bedstraw, Galium aparine); test: Test A postemergence; details: Galium, post-emergence, 240 h
Procedure, shortened: as §1

[14] = test system: barnyardgrass (Echinochloa crus-galli); test: Test A postemergence; details: Echinochloa crus-galli, post-emergence, 240 h
Procedure, shortened: as §1

[15] = test system: giant foxtail (Setaria faberii); test: Test A postemergence; details: Setaria faberi, post-emergence, 240 h
Procedure, shortened: as §1

rice (Oryra sativa) = test: Test B flooded paddy test; details: Oryza sativa, 250 g ai/ha, Flood; 0 to 100 scale where 0 is no effect and 100 is complete control; read-out: Rice plant response rating
Procedure, shortened: (§2)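 Flooding to 3 cm over soil accompanied treatment, which consisted of adding compound to the standing water around 2-leaf plants; depth was then maintained. Visual assessment versus controls followed at 13 to 15 d (scale 0–100, 0 meaning no effect).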

[16] = test system: ducksalad (Heteranthera limosa); test: Test B flooded paddy test; details: Heteranthera limosa, 250 g ai/ha, Flood; 0 to 100 scale where 0 is no effect and 100 is complete control; read-out: Ducksalad plant response rating
Procedure, shortened: as §2

[17] = test system: sedge, umbrella (small-flower umbrella sedge, Cyperus difformis); test: Test B flooded paddy test; details: Cyperus difformis, 250 g ai/ha, Flood; 0 to 100 scale where 0 is no effect and 100 is complete control; read-out: Sedge, Umbrella plant response rating
Procedure, shortened: as §2

[18] = test system: barnyardgrass (Echinochloa crus-galli); test: Test B flooded paddy test; details: Echinochloa crus-galli, 250 g ai/ha, Flood; 0 to 100 scale where 0 is no effect and 100 is complete control; read-out: Barnyardgrass plant response rating
Procedure, shortened: as §2

[19] = 125 g ai/ha, preemergence, approx. 10 d

CON1CC[C@H](c2cccc(C(F)(F)F)c2)[C@@H](C(=O)Nc2ccccc2C(F)(F)F)C1=O [Compound 1172]
0%: pest or weed control at 31 g/ha ([1]; 31 g ai/ha, Preemergence) | pest or weed control at 125 g/ha [1, 19] | pest or weed control at 31 g/ha ([2]; 31 g ai/ha, Preemergence) | pest or weed control at 125 g/ha [2, 19] | pest or weed control at 31 g/ha (Kochia (Kochia scoparia) [3]; 31 g ai/ha, Preemergence) | pest or weed control at 125 g/ha (Kochia (Kochia scoparia) [3]; [19]) | pest or weed control at 31 g/ha ([4]; 31 g ai/ha, Preemergence) | pest or weed control at 125 g/ha [4, 19] | pest or weed control at 31 g/ha ([5]; 31 g ai/ha, Preemergence) | pest or weed control at 125 g/ha [5, 19] | pest or weed control at 31 g/ha ([6]; 31 g ai/ha, Preemergence) | pest or weed control at 125 g/ha [6, 19] | pest or weed control at 125 g/ha ([7]; 125 g ai/ha, postemergence, visual injury vs untreated controls after approx. 10 d, 0 = no effect, 100 = complete control, read-out: Blackgrass plant response rating (0 to 100 scale)) | pest or weed control at 31 g/ha ([7]; Postemergence, 31 g ai/ha, visual injury after approx. 10 d, 0 to 100 scale, 0 no effect, 100 complete control, read-out: Plant response rating, Blackgrass) | plant injury at 125 g/ha [8] | pest or weed control at 125 g/ha [9] | pest or weed control at 125 g/ha [10] | pest or weed control at 125 g/ha (Kochia (Kochia scoparia) [11]; 125 g ai/ha, postemergence, visual injury vs untreated controls after approx. 10 d, 0 = no effect, 100 = complete control, read-out: Kochia plant response rating (0 to 100 scale)) | pest or weed control at 31 g/ha (Kochia (Kochia scoparia) [11]; Postemergence, 31 g ai/ha, visual injury after approx. 10 d, 0 to 100 scale, 0 no effect, 100 complete control, read-out: Plant response rating, Kochia) | pest or weed control at 125 g/ha [12] | plant injury at 125 g/ha (corn (Zea mays); 125 g ai/ha, postemergence, visual injury vs untreated controls after approx. 10 d, 0 = no effect, 100 = complete control, read-out: Corn plant response rating (0 to 100 scale)) | Corn plant response rating (crop injury, 0 = no effect, 100 = complete kill) at 31 g/ha (corn (Zea mays); Postemergence, 31 g ai/ha, visual injury after approx. 10 d, 0 to 100 scale, 0 no effect, 100 complete control) | pest or weed control at 125 g/ha ([13]; 125 g ai/ha, postemergence, visual injury vs untreated controls after approx. 10 d, 0 = no effect, 100 = complete control, read-out: Galium plant response rating (0 to 100 scale)) | pest or weed control at 31 g/ha ([13]; Postemergence, 31 g ai/ha, visual injury after approx. 10 d, 0 to 100 scale, 0 no effect, 100 complete control, read-out: Plant response rating, Galium) | pest or weed control at 125 g/ha ([14]; 125 g ai/ha, postemergence, visual injury vs untreated controls after approx. 10 d, 0 = no effect, 100 = complete control, read-out: Barnyardgrass plant response rating (0 to 100 scale)) | pest or weed control at 31 g/ha ([14]; Postemergence, 31 g ai/ha, visual injury after approx. 10 d, 0 to 100 scale, 0 no effect, 100 complete control, read-out: Plant response rating, Barnyardgrass) | pest or weed control at 125 g/ha ([15]; 125 g ai/ha, postemergence, visual injury vs untreated controls after approx. 10 d, 0 = no effect, 100 = complete control, read-out: Foxtail, Giant plant response rating (0 to 100 scale)) | pest or weed control at 31 g/ha ([15]; Postemergence, 31 g ai/ha, visual injury after approx. 10 d, 0 to 100 scale, 0 no effect, 100 complete control, read-out: Plant response rating, Foxtail, Giant) | pest or weed control at 250 g/ha (rice (Oryra sativa)) | pest or weed control at 250 g/ha [16] | pest or weed control at 250 g/ha [17] | pest or weed control at 250 g/ha [18]
